The record followed here is paper PMC9188586, “Design, synthesis and evaluation of novel tetrahydropyridothienopyrimidin-ureas as cytotoxic and anti-angiogenic agents” (Scientific Reports, 2022).

SMILES strings stand for the structures.

The test system of one series is MCF-7 (breast cancer). As to the kind of experiment: MTT antiproliferative assay, MCF-7. The format is cell-based. Particulars: Homo sapiens, MCF7, 48 h incubation. The protocol: (§1) Two series of new tetrahydropyridothienopyrimidines were evaluated for their cytotoxicity against a panel of cell lines, including MCF-7 (breast cancer), SW480 (colon cancer), PC-3 (prostate cancer), HEPG-2 (liver cancer) and HUVEC (human umbilical vein endothelial cell) using 3-(4,5-dimethyl- thiazol-2-yl)-2,5-diphenyltetrazolium bromide (MTT) assay. Sorafenib was used as a positive control. The cytotoxicity is expressed as the concentration that inhibits 50% of cell viability (IC50). […] The preliminary SAR is evaluated on the basis of cytotoxicity results of phenyl derivatives (11a–k) and pyridine derivatives (11l–11y).The mesomeric effect didn’t improve the cytotoxicity of compound 11d in the first series.
(§2) Cytotoxicity of the compounds was measured by detecting the ability of cells in transforming MTT into a purple formazan dye. The different cell lines were provided by the National Cell Bank of Iran (Pastor Institute, Tehran, Iran). The required materials and reagents were purchased from Sigma. After the cell culture in RPMI-1640 medium and DMEM containing 10% FBS (Gibco, Milano, Italy), the suspension of MCF-7 (7000) and other cells (5000) were poured into 96 well plates and incubated in a humidified incubator containing 5% CO2 at 37 °C for 24 h. Subsequently, a solution of the compounds in DMSO was added to these plates and incubated for 48 h. After incubation, the solution of 5% 3-(4,5-Dimethyl-2-thiazolyl)-2,5-diphenyl-2H-tetrazolium bromide (MTT) was added to all the wells and incubation was continued for another 4 h. The record of color intensity of the formazan solution was at 570 nm by Bio-Rad microplate reader (Model 680) which reflects the cell growth condition.
On the technique in general: Tetrazolium dyes change colour on reduction, which living cells bring about.

The next series deals with PC-3 (prostate cancer). Description: MTT antiproliferative assay, PC-3. The format is cell-based. The note with it: 48 h incubation. How it is done: as §1, §2
The subject of the next series is SW480 (colon cancer). As to the kind of experiment: MTT antiproliferative assay, SW480. The format is cell-based. Particulars: Homo sapiens, SW480, 48 h incubation. How it is done:
as §1, §2

Another series concerns HEPG-2 (liver cancer). Description: MTT antiproliferative assay, HEPG-2. The format is cell-based. The note with it: Homo sapiens, HepG2, 48 h incubation. How it is done:
as §1, §2

Series [1] deals with HUVEC (human umbilical vein endothelial cell). Description: MTT antiproliferative assay, HUVEC. The format is cell-based. Particulars: for IC50: Homo sapiens, HUVEC, MTT assay, 48 h incubation. The protocol:
as §1, §2

One may read the IC50 as the midpoint of a concentration-inhibition curve. A higher IC50 goes with lower potency. A word on the melting point: it is the temperature, or range, at which the solid turns liquid. In turn, `O=C(Nc1ccccc1)Nc1nnc(Sc2ncnc3sc4c(c23)CCN(Cc2ccccc2)C4)s1` [Compound 11a, 1-(5-((7-benzyl-5,6,7,8-tetrahydropyrido[4',3':4,5]thieno[2,3-d]pyrimidin-4-yl)thio)-1,3,4-thiadiazol-2-yl)-3-phenylurea] displayed a melting point of 230 to 232 °C. In the series on MCF-7 (breast cancer), this compound returned an IC50 of 23.34 ± 0.18 µM. In the series on PC-3 (prostate cancer), the IC50 is 34.4 ± 1.64 µM. The same compound yielded an IC50 in the series on SW480 (colon cancer) of 24.5 ± 0.72 µM. In the series on HEPG-2 (liver cancer), this compound returned an IC50 of 7.34 ± 0.01 µM. Further, the IC50 in series [1] was determined as 19.06 ± 0.12 µM.
In turn, `COc1ccc(NC(=O)Nc2nnc(Sc3ncnc4sc5c(c34)CCN(Cc3ccccc3)C5)s2)cc1` [Compound 11d, 1-(5-((7-benzyl-5,6,7,8-tetrahydropyrido[4',3':4,5]thieno[2,3-d]pyrimidin-4-yl)thio)-1,3,4-thiadiazol-2-yl)-3-(4-methoxyphenyl)urea] returned a melting point of 280 to 282 °C. The same compound displayed an IC50 with MCF-7 (breast cancer) of 51.92 ± 0.47 µM. Also, 44 ± 1.52 µM corresponded to half-maximal inhibition in the series on PC-3 (prostate cancer) (IC50). This compound also yielded an IC50 with SW480 (colon cancer) of 45.1 ± 1.7 µM. This compound also came in with an IC50 with HEPG-2 (liver cancer) of 43.92 ± 0.16 µM. Half-maximal inhibition in series [1] (IC50) required 44.15 ± 0.22 µM.
Compound `O=C(Nc1cccc(F)c1)Nc1nnc(Sc2ncnc3sc4c(c23)CCN(Cc2ccccc2)C4)s1` [Compound 11e, 1-(5-((7-benzyl-5,6,7,8-tetrahydropyrido[4',3':4,5]thieno[2,3-d]pyrimidin-4-yl)thio)-1,3,4-thiadiazol-2-yl)-3-(3-fluorophenyl)urea] came in with a melting point of 144 to 146 °C. This compound displayed an IC50 in the series on MCF-7 (breast cancer) of 13 ± 0.18 µM. For the same compound, half-maximal inhibition in the series with PC-3 (prostate cancer) (IC50) was put at 42.8 ± 1.82 µM. The compound also registered an IC50 in the series with SW480 (colon cancer) of 65.6 ± 1.74 µM. This compound registered a half-maximal inhibitory concentration (IC50) in the series on HEPG-2 (liver cancer) of 9.84 ± 0.06 µM. In series [1], this compound returned an IC50 of 27.48 ± 0.07 µM.
On to `O=C(Nc1ccc(F)cc1)Nc1nnc(Sc2ncnc3sc4c(c23)CCN(Cc2ccccc2)C4)s1` [Compound 11f, 1-(5-((7-benzyl-5,6,7,8-tetrahydropyrido[4',3':4,5]thieno[2,3-d]pyrimidin-4-yl)thio)-1,3,4-thiadiazol-2-yl)-3-(4-fluorophenyl)urea], for which the melting point was 166 to 168 °C. 45.04 ± 0.41 µM corresponded to half-maximal inhibition in the series with MCF-7 (breast cancer) (IC50). In addition, in the series with PC-3 (prostate cancer), the IC50 is 41.4 ± 0.46 µM. The compound further returned an IC50 with SW480 (colon cancer) of 61.3 ± 2.02 µM. The IC50 in the series on HEPG-2 (liver cancer) was 30.7 ± 0.44 µM. Moreover, the midpoint of inhibition in series [1], the IC50, lay at 47.98 ± 0.27 µM.
On to `O=C(Nc1cccc(C(F)(F)F)c1)Nc1nnc(Sc2ncnc3sc4c(c23)CCN(Cc2ccccc2)C4)s1` [Compound 11j, 1-(5-((7-benzyl-5,6,7,8-tetrahydropyrido[4',3':4,5]thieno[2,3-d]pyrimidin-4-yl)thio)-1,3,4-thiadiazol-2-yl)-3-(3-(trifluoromethyl)phenyl)urea], for which the melting point lay in the range of 181 to 183 °C. 68.94 ± 0.63 µM corresponded to half-maximal inhibition in the series with MCF-7 (breast cancer) (IC50). Besides, the half-maximal inhibitory concentration (IC50) in the series with PC-3 (prostate cancer) is 73.8 ± 2.92 µM. In the series on SW480 (colon cancer), this compound returned an IC50 of 46.8 ± 1.13 µM. This compound yielded an IC50 in the series on HEPG-2 (liver cancer) of 63 ± 0.64 µM. The compound further returned an IC50 in series [1] of 67.1 ± 1.85 µM.
`COc1cccc(NC(=O)Nc2nnc(Sc3ncnc4sc5c(c34)CCN(Cc3ccncc3)C5)s2)c1` [Compound 11o, 1-(3-methoxyphenyl)-3-(5-((7-(pyridin-4-ylmethyl)-5,6,7,8-tetrahydropyrido[4',3':4,5]thieno[2,3-d]pyrimidin-4-yl)thio)-1,3,4-thiadiazol-2-yl)urea] gave a melting point of 191 to 193 °C. Further, the IC50 in the series with MCF-7 (breast cancer) was found to be 14.63 ± 0.07 µM. The compound also registered an IC50 in the series on PC-3 (prostate cancer) of 33.6 ± 1.41 µM. The same compound had an IC50 in the series with SW480 (colon cancer) of 65.8 ± 0.28 µM. Besides, in the series with HEPG-2 (liver cancer), the half-inhibitory concentration (IC50) turned out to be 69.32 ± 0.52 µM. 20.6 ± 0.5 µM corresponded to half-maximal inhibition in series [1] (IC50).
Consider `O=C(Nc1cccc(F)c1)Nc1nnc(Sc2ncnc3sc4c(c23)CCN(Cc2ccncc2)C4)s1` [Compound 11q, 1-(3-fluorophenyl)-3-(5-((7-(pyridin-4-ylmethyl)-5,6,7,8-tetrahydropyrido[4',3':4,5]thieno[2,3-d]pyrimidin-4-yl)thio)-1,3,4-thiadiazol-2-yl)urea], for which the melting point lay in the range of 243 to 246 °C. Half-maximal inhibition with MCF-7 (breast cancer) (IC50) was put at 9.17 ± 0.04 µM. This compound also had an IC50 with PC-3 (prostate cancer) of 4.5 ± 0.03 µM. The IC50 with SW480 (colon cancer) was 21.8 ± 0.72 µM. The IC50 in the series on HEPG-2 (liver cancer) came out at 74.3 ± 2.12 µM. Besides, half-maximal inhibition in series [1] (IC50) was put at 10.13 ± 0.05 µM.
In the case of `O=C(Nc1nnc(Sc2ncnc3sc4c(c23)CCN(Cc2ccncc2)C4)s1)Nc1ccccc1Cl` [Compound 11s, 1-(2-chlorophenyl)-3-(5-((7-(pyridin-4-ylmethyl)-5,6,7,8-tetrahydropyrido[4',3':4,5]thieno[2,3-d]pyrimidin-4-yl)thio)-1,3,4-thiadiazol-2-yl)urea], the melting point was in the range of 229 to 231 °C. In addition, the IC50 in the series on MCF-7 (breast cancer) turned out to be 4.69 ± 0.09 µM. This compound also showed an IC50 in the series on PC-3 (prostate cancer) of 8.94 ± 0.03 µM. The same compound gave an IC50 with SW480 (colon cancer) of 30.5 ± 0.12 µM. This compound also yielded an IC50 with HEPG-2 (liver cancer) of 26.26 ± 0.24 µM. The compound further showed an IC50 in series [1] of 6.87 ± 0.03 µM.
Regarding `O=C(Nc1ccc(Cl)cc1)Nc1nnc(Sc2ncnc3sc4c(c23)CCN(Cc2ccncc2)C4)s1` [Compound 11u, 1-(4-chlorophenyl)-3-(5-((7-(pyridin-4-ylmethyl)-5,6,7,8-tetrahydropyrido[4',3':4,5]thieno[2,3-d]pyrimidin-4-yl)thio)-1,3,4-thiadiazol-2-yl)urea], the melting point was 188 to 190 °C. Further, in the series with MCF-7 (breast cancer), the IC50 amounted to 8.1 ± 0.02 µM. This compound also displayed an IC50 in the series on PC-3 (prostate cancer) of 4.96 ± 0.18 µM. Besides, in the series on SW480 (colon cancer), the IC50 turned out to be 60.7 ± 1.13 µM. This compound also came in with an IC50 in the series on HEPG-2 (liver cancer) of 27.8 ± 1.84 µM. Also, the “increase of cytotoxicity against HUVEC on moving chlorine to para position” value in series [1] (11t vs 11u) was roughly 30 folds. Moreover, the IC50 in series [1] worked out at 2.08 ± 0.01 µM.
Take `O=C(Nc1ccc(Cl)c(Cl)c1)Nc1nnc(Sc2ncnc3sc4c(c23)CCN(Cc2ccncc2)C4)s1` [Compound 11v, 1-(3,4-dichlorophenyl)-3-(5-((7-(pyridin-4-ylmethyl)-5,6,7,8-tetrahydropyrido[4',3':4,5]thieno[2,3-d]pyrimidin-4-yl)thio)-1,3,4-thiadiazol-2-yl)urea]: the IC50 in the series with MCF-7 (breast cancer) was found to be 10.37 ± 0.03 µM; in the series with PC-3 (prostate cancer), 55.3 ± 1.82 µM; in the series with SW480 (colon cancer), 67.7 ± 1.55 µM; in the series on HEPG-2 (liver cancer), 26.4 ± 0.9 µM; in series [1], 68.4 ± 1.44 µM.
Take `Cc1ccc(NC(=O)Nc2nnc(Sc3ncnc4sc5c(c34)CCN(Cc3ccncc3)C5)s2)cc1Cl` [Compound 11w, 1-(3-chloro-4-methylphenyl)-3-(5-((7-(pyridin-4-ylmethyl)-5,6,7,8-tetrahydropyrido[4',3':4,5]thieno[2,3-d]pyrimidin-4-yl)thio)-1,3,4-thiadiazol-2-yl)urea]: the melting point was 157 to 159 °C. The same compound returned an IC50 with MCF-7 (breast cancer) of 6.8 ± 0.05 µM. The IC50 in the series with PC-3 (prostate cancer) was 9.42 ± 0.63 µM. This compound registered an IC50 with SW480 (colon cancer) of 71.9 ± 1.1 µM. Besides, the IC50 with HEPG-2 (liver cancer) was 38.5 ± 0.42 µM. This compound displayed an IC50 in series [1] of 6.23 ± 0.03 µM.
In turn, `O=C(Nc1cccc(C(F)(F)F)c1)Nc1nnc(Sc2ncnc3sc4c(c23)CCN(Cc2ccncc2)C4)s1` [Compound 11x, 1-(5-((7-(pyridin-4-ylmethyl)-5,6,7,8-tetrahydropyrido[4',3':4,5]thieno[2,3-d]pyrimidin-4-yl)thio)-1,3,4-thiadiazol-2-yl)-3-(3-(trifluoromethyl)phenyl)urea] came in with a melting point of 241 to 243 °C. Besides, in the series with MCF-7 (breast cancer), half-maximal inhibition (IC50) was put at 9.36 ± 0.06 µM. The compound further returned an IC50 in the series with PC-3 (prostate cancer) of 32.9 ± 0.61 µM. Also, half-maximal inhibition in the series on SW480 (colon cancer) (IC50) was put at 60.55 ± 0.41 µM. This compound gave a concentration for half-maximal inhibition (IC50) with HEPG-2 (liver cancer) of 44.6 ± 0.52 µM. Further, the IC50 in series [1] turned out to be 9.15 ± 0.02 µM.
As to `O=C(Nc1ccc(Cl)c(C(F)(F)F)c1)Nc1nnc(Sc2ncnc3sc4c(c23)CCN(Cc2ccncc2)C4)s1` [Compound 11y, 1-(4-chloro-3-(trifluoromethyl)phenyl)-3-(5-((7-(pyridin-4-ylmethyl)-5,6,7,8-tetrahydropyrido[4',3':4,5]thieno[2,3-d]pyrimidin-4-yl)thio)-1,3,4-thiadiazol-2-yl)urea], the melting point fell in the range of 257 to 260 °C. Half-maximal inhibition in the series with MCF-7 (breast cancer) (IC50) required 20.48 ± 0.11 µM. In the series on PC-3 (prostate cancer), this compound registered an IC50 of 4.37 ± 0.06 µM. This compound returned an IC50 in the series with SW480 (colon cancer) of 45.69 ± 0.06 µM. The concentration for half-maximal inhibition (IC50) with HEPG-2 (liver cancer) came out at 71.6 ± 3.24 µM. In series [1], this compound showed an IC50 of 57.1 ± 0.61 µM.
